Converted amounts (≈) assume the structure as drawn. Like-named read-outs stand apart in the source and are kept apart here.
Tests used:
[1] = system: S. aureus FDA209P (ATCC 6538P); test: microbe, parasite or virus in culture; type: cell-based, Staphylococcus aureus; settings: for MIC: Staphylococcus aureus
Description: (§1) S. aureus Mu50 (refer to Hiramatsu, K., Hanaki H., et al., J. Antimicrob. Chemother., 1997, 40(1), 135-6) or S. aureus FDA209P (ATCC 6538P) was cultured overnight at 37° C. in 4 mL of TBS (Tryptical Soy Broth, produced by Becton Dickinson) with shaking. After completion of the culture, the cells were suspended in fresh TBS to prepare a cell suspension showing an absorbance of 0.3 at 578 nm. Then, the cell suspension was diluted 500 times with CAMHB mentioned above.
(§2) CAMHB containing each test compound at each of the aforementioned concentrations was added to each well of a 96-well plate in a volume of 50 μL/well, the aforementioned cell suspension diluted 500 time was added to the well in a volume of 50 μL/well, and stationary culture was carried out overnight at 37° C.
(§3) MIC values (mg/L) of the flavones and quinolones against the strains were measured in the same manner as that of the measurement of MIC of Example 1, except that CAMHB containing each of the aforementioned flavones and quinolones prepared in Example 2 was used instead of CAMHB containing each of the test compounds.
(§4) MIC values of the flavones and quinolone for the strains were measured in the same manners as those of Example 1, except that S. aureus Mu50 NR-1 was also used as Staphylococcus aureus in addition to S. aureus FDA209P and S. aureus Mu50, cell suspensions of the strains were prepared.
(§5) In the same manner as that of Example 1, MIC values of M-246, M-21, J-Q21, and J-Q12.1 for Staphylococcus aureus were measured. M-246 and M-21 were obtained as commercial products, and as J-Q21 and J-Q12.1, those synthesized in Examples 6 and 7 were used.

S. aureus Mu50 = test: microbe, parasite or virus in culture; type: cell-based, Staphylococcus aureus; settings: for MIC ratio: (MIC value for S. aureus FDA209P)/(MIC value for S. aureus Mu50); for MIC: Staphylococcus aureus; for MIC (mg/L) Mu50: Example 1, Tables 1 to 10
Description: as §1, §2, §3, §4, §5

S. aureus Mu50 NR1-1 = test: MIC by broth microdilution, S. aureus Mu50 NR1-1; type: cell-based; settings: Staphylococcus aureus, MU50NR11; Example 3, Table 13; read-out: MIC (mg/L) Mu50 NR1-1 (S80F, w)
Description: as §4
S. aureus Mu50 NR1-1 mentioned in Table 13 is a strain selected stepwise from the clinically isolated S. aureus Mu50 strain with deoxynybomycin, and it has a topoisomerase IV encoded by parC in which a […] (see, Hiramatsu K. et al., J. Antimicrob. Agents, 2012, June; 39 (6), 478-85).
In Table 13, the descriptions in the parentheses after the strains indicate the mutated amino acid residue and its position, as represented by (the mutation of topoisomerase IV resulting from the mutation of parCand the mutation of DNA gyrase resulting from the mutation of gyrA). The character “w” means wild-type, representing without mutation.

[2] = Example 1, Tables 1 to 10, read-out: MIC (mg/L) FDA209P
[3] = Example 2, Table 12, read-out: MIC (mg/L) S. aureus FDA209P
[4] = Example 3, Table 13, read-out: MIC (mg/L) FDA209P (w, w)
[5] = MU50, read-out: MIC (mg/L) Mu50, Example 1, Tables 1 to 10
[6] = MU50, read-out: MIC (mg/L) S. aureus Mu50, Example 2, Table 12
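Throughout, for MIC ratio: ratio is FDA209P MIC divided by Mu50 MIC.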

SMILES: COc1cc(O)c2c(=O)c(OC)c(-c3ccc(O)c(OC)c3)oc2c1 [No. 66, 5-hydroxy-2-(4-hydroxy-3-methoxyphenyl)-3,7-dimethoxychromen-4-one]
- MIC [1, 2]: 128 mg/L (≈ 372 µM)
- MIC [1, 3]: 128 mg/L (≈ 372 µM)
- MIC [1, 4]: 128 mg/L (≈ 372 µM)
- MIC ratio (S. aureus Mu50): 4
- MIC (S. aureus Mu50; [5]): 32 mg/L (≈ 92.9 µM)
- MIC (S. aureus Mu50; [6]): 32 mg/L (≈ 92.9 µM)
- MIC (S. aureus Mu50 NR1-1): 128 mg/L (≈ 372 µM)

SMILES: O=c1cc(-c2ccc(O)c(O)c2)oc2cc(O)cc(O)c12 [No. 6, 3′,4′,5,7-Tetrahydroxyflavone]
- MIC [1, 2]: 32 mg/L (≈ 112 µM)
- MIC [1, 3]: 32 mg/L (≈ 112 µM)
- MIC [1, 4]: 32 mg/L (≈ 112 µM)
- MIC ratio (S. aureus Mu50): 4
- MIC (S. aureus Mu50; [6]): 8 mg/L (≈ 27.9 µM)
- MIC (S. aureus Mu50 NR1-1): 32 mg/L (≈ 112 µM)

SMILES: CCn1cc(C(=O)O)c(=O)c2cc(F)c(N3CCNCC3)cc21 [Norfloxacin, norfloxacin, reference compound]
- MIC [1, 3]: 0.5 mg/L (≈ 1.57 µM)
- MIC [1, 4]: 0.5 mg/L (≈ 1.57 µM)
- MIC ratio (S. aureus Mu50): 0.008
- MIC (S. aureus Mu50; [6]): 64 mg/L (≈ 200 µM)
- MIC (S. aureus Mu50 NR1-1): 16 mg/L (≈ 50.1 µM)

SMILES: COc1cc(-c2oc3c(OC)c(O)cc(O)c3c(=O)c2O)ccc1O [No. 38, 3,5,7-trihydroxy-2-(4-hydroxy-3-methoxyphenyl)-8-methoxychromen-4-one]
- MIC [1, 2]: 128 mg/L (≈ 370 µM)
- MIC [1, 3]: 128 mg/L (≈ 370 µM)
- MIC [1, 4]: 128 mg/L (≈ 370 µM)
- MIC ratio (S. aureus Mu50): 4
- MIC (S. aureus Mu50; [5]): 32 mg/L (≈ 92.4 µM)
- MIC (S. aureus Mu50; [6]): 32 mg/L (≈ 92.4 µM)
- MIC (S. aureus Mu50 NR1-1): 64 mg/L (≈ 185 µM)

SMILES: O.O=c1c(O)c(-c2ccc(O)c(O)c2)oc2cc(O)cc(O)c12 [No. 1, 3,3′,4′,5,7-Pentahydroxyflavone Hydrate]
- MIC [1, 2]: 64 mg/L
- MIC [1, 3]: 64 mg/L
- MIC [1, 4]: 64 mg/L
- MIC ratio (S. aureus Mu50): 2
- MIC (S. aureus Mu50; [5]): ≤ 32 mg/L
- MIC (S. aureus Mu50; [6]): 32 mg/L
- MIC (S. aureus Mu50 NR1-1): 64 mg/L

SMILES: COc1ccc2c(=O)cc(-c3ccccc3)oc2c1 [No. 15, 7-Methoxyflavone]
- MIC [1, 2]: 128 mg/L (≈ 507 µM)
- MIC [1, 3]: 128 mg/L (≈ 507 µM)
- MIC [1, 4]: 128 mg/L (≈ 507 µM)
- MIC ratio (S. aureus Mu50): 4
- MIC (S. aureus Mu50; [5]): 32 mg/L (≈ 127 µM)
- MIC (S. aureus Mu50; [6]): 32 mg/L (≈ 127 µM)
- MIC (S. aureus Mu50 NR1-1): 128 mg/L (≈ 507 µM)

SMILES: COc1cc(OC)c2c(=O)c(-c3ccc(OC)c(OC)c3)coc2c1 [compound 111]
- MIC [1, 2]: > 128 mg/L
- MIC (S. aureus Mu50; [5]): 128 mg/L (≈ 374 µM)

SMILES: O=C1CC(c2cccc(O)c2)Oc2ccccc21 (stereo not shown) [compound 124, 3′-Hydroxyflavanone]
- MIC [1, 2]: 128 mg/L (≈ 533 µM)
- MIC (S. aureus Mu50; [5]): 128 mg/L (≈ 533 µM)

SMILES: COc1ccc(-c2cc(=O)c3c(OC)cc(OC)cc3o2)cc1 [compound 18]
- MIC (mg/L) FDA209P ([1]; Example 1, Tables 1 to 10): 128 mg/L (≈ 410 µM)
- MIC (mg/L) Mu50 (S. aureus Mu50): 128 mg/L (≈ 410 µM)

SMILES: COc1ccc(-c2coc3cc(OC)cc(OC)c3c2=O)cc1 [compound 76]
- MIC [1, 2]: > 128 mg/L
- MIC (S. aureus Mu50; [5]): > 128 mg/L

SMILES: COc1ccc(-c2coc3cc(OC(=O)N(C)C)cc(O)c3c2=O)cc1OC [compound 79]
- MIC ([1]; read-out: MIC (mg/L) FDA209P): > 128 mg/L
- MIC (S. aureus Mu50; MU50, read-out: MIC (mg/L) Mu50): > 128 mg/L

SMILES: COc1ccc(-c2c(C(=O)O)oc3cc(OC)cc(OC)c3c2=O)cc1 [compound 92]
- MIC [1, 2]: > 128 mg/L
- MIC (S. aureus Mu50; [5]): > 128 mg/L

SMILES: CCOC(=O)c1oc2cc(O)cc(O)c2c(=O)c1-c1ccc(OC)c(OC)c1 [compound 114]
- MIC [1, 2]: > 128 mg/L
- MIC (S. aureus Mu50; [5]): > 128 mg/L

SMILES: COc1ccc(-c2coc3cc(OC)cc(O)c3c2=O)cc1 [compound 74]
- MIC [1, 2]: > 128 mg/L
- MIC (S. aureus Mu50; [5]): > 128 mg/L

SMILES: COc1cc(OC)c2c(=O)c(-c3cc4c(cc3C)OCCO4)c(C)oc2c1 [compound 88]
- MIC (mg/L) FDA209P ([1]; Example 1, Tables 1 to 10): 128 mg/L (≈ 347 µM)
- MIC (mg/L) Mu50 (S. aureus Mu50): >128 mg/L

SMILES: COc1ccc(-c2oc3cc4c(c(OC)c3c(=O)c2OC)OCO4)cc1 [compound 32]
- MIC (mg/L) FDA209P ([1]; Example 1, Tables 1 to 10): >128 mg/L
- MIC (mg/L) Mu50 (S. aureus Mu50): >128 mg/L

SMILES: COc1cc(O)c2c(=O)c(OC)c(-c3cc(O)c(OC)c(OC)c3)oc2c1 [No. 24, 5-hydroxy-2-(3-hydroxy-4,5-dimethoxyphenyl)-3,7-dimethoxychromen-4-one]
- MIC [1, 2]: 128 mg/L (≈ 342 µM)
- MIC [1, 3]: 128 mg/L (≈ 342 µM)
- MIC [1, 4]: 128 mg/L (≈ 342 µM)
- MIC ratio (S. aureus Mu50): 16
- MIC (S. aureus Mu50; [5]): 8 mg/L (≈ 21.4 µM)
- MIC (S. aureus Mu50; [6]): 8 mg/L (≈ 21.4 µM)
- MIC (S. aureus Mu50 NR1-1): 128 mg/L (≈ 342 µM)

SMILES: COc1ccc(-c2cc(=O)c3c(OC)c(OC)c(OC)c(OC)c3o2)cc1 [compound 11]
- MIC (mg/L) FDA209P ([1]; Example 1, Tables 1 to 10): >128 mg/L
- MIC (mg/L) Mu50 (S. aureus Mu50): >128 mg/L

SMILES: CC(=O)Oc1cc(OC(C)=O)c2c(=O)cc(-c3ccc(OC(C)=O)c(OC(C)=O)c3)oc2c1 [compound 36]
- MIC [1, 2]: > 128 mg/L
- MIC (S. aureus Mu50; [5]): > 128 mg/L

SMILES: COc1ccc(-c2coc3cc(O)c(OC)c(O)c3c2=O)cc1 [compound 94]
- MIC [1, 2]: 128 mg/L (≈ 407 µM)
- MIC (S. aureus Mu50; [5]): 128 mg/L (≈ 407 µM)

SMILES: COc1c(O)cc2occ(-c3ccc(O)cc3)c(=O)c2c1O [compound 100]
- MIC [1, 2]: 128 mg/L (≈ 426 µM)
- MIC (S. aureus Mu50; [5]): 128 mg/L (≈ 426 µM)

SMILES: COc1cc(O)c2c(=O)c(-c3ccc(O)cc3)coc2c1 [compound 112]
- MIC [1, 2]: > 128 mg/L
- MIC (S. aureus Mu50; [5]): > 128 mg/L
